Measured values as given in US6933317B2, “PGD2 receptor antagonistic pharmaceutical compositions” (Shionogi & Co. Ltd., priority 2000, dated 2005).

Columns and labels:
[1] = target: T1, PGD2 receptor (Homo sapiens, UniProt Q13258); experiment: Antagonistic activity against PGD2 receptor using human platelet (inhibition of PGD2-induced cAMP increase); format: cell-based; settings: 0.1 μM PGD2, cAMP by radioimmunoassay, read-out: Inhibitory activity for the increase of cAMP caused by PGD2 in human platelet IC50
T1 construct: Peripheral blood was collected from a healthy volunteer; endogenous in cells; host or cells: washed human platelets from peripheral blood of a healthy volunteer
T1 sequence (Q13258 1-359): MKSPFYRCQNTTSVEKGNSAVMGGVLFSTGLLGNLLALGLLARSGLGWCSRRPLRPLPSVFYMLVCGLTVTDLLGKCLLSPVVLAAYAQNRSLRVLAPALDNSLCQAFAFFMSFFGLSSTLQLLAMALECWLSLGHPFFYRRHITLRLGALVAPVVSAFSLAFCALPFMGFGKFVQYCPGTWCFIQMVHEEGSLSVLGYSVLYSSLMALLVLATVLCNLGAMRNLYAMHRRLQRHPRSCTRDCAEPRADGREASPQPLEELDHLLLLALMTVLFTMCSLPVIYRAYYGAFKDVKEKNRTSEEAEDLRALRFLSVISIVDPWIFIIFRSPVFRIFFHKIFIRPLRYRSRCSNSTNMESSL
Procedure: Experiment 2 Evaluation of Antagonistic Activity Against PGD2 Receptor Using Human Platelet
Peripheral blood was collected from a healthy volunteer using a syringe in which 1/9 volume of a citric acid/dextrose solution was previously added. The sample was subjected to centrifugation at 1200 rpm for 10 min to obtain the supernatant (PRP: platelet rich plasma). The resultant PRP was washed 3 times with a washing buffer and the number of platelets was counted with a micro cell counter. A suspension adjusted to contain the platelets at a final concentration of 5×10^8/ml was warmed at 37° C., then subjected to the pre-treatment with 3-isobutyl-1-methylxanthine (0.5 mM) for 5 min. To the suspension was added a test compound diluted at various concentration, and 10 minutes later, 0.1 μM PGD2 was added to induce the reaction 2 minutes later, hydrochloric acid was added to terminate the reaction. The platelet was destroyed with an ultrasonic homogenizer. After centrifugation, the cAMP in the supernatant was determined by radioimmunoassay.

[2] = Change of plasma concentration of drug in rat (half life of the disappearance after intravenous administration); format: in vivo; settings: Jcl-SD male rats, 0.5 to 2 mg/kg, plasma concentration of unchanged compound
Procedure: Experiment 3 Change of Plasma Concentration of Drug in Rat
Compound (0.5 to 2 mg/kg) was administered intravenously to Jcl-SD male rats. The concentration of the unchanged compound was measured at 2, 5, 15, 30, 60, 120, and 240 min after the administration by the use of HPLC (determination limit; 0.05 μg/ml) and LC/MS/MS (determination limit; 0.001 μg/ml) and the half life of the disappearance was calculated. [drawing 387]

[3] = target: T1, PGD2 receptor; experiment: Binding activity to PGD2 receptor (human platelet membrane fraction, [3H]PGD2); settings: 5 nM [3H]PGD2, 4° C., 90 min
Procedure: Experiment 1 Binding Activity to PGD2 Receptor
(1) Preparation of Human Platelet Membrane Fraction
Blood was collected using a plastic syringe containing 3.8% sodium citrate from the vein of healthy volunteers (adult male and female), then put into a plastic test tube and mixed by slow-reversion. The sample was then centrifuged at 1800 rpm, for 10 min at room temperature, and the supernatant containing PRP (platelet-rich plasma) was collected. The PRP was re-centrifuged at 2300 rpm, for 22 min at room temperature to obtain platelets. The platelets were homogenized using a homogenizer (Ultra-Turrax) followed by centrifugation 3 times at 20,000 rpm, 10 min at 4° C. to obtain a platelet membrane fraction. After protein determination, the membrane fraction was adjusted to 2 mg/ml and preserved in a refrigerator at −80° C. until using for the binding test.
(2) Binding to PGD2 Receptor
To a binding-reaction solution (50 mM Tris/HCl, pH 7.4, 5 mM MgCl2) (0.2 ml) were added the human platelet membrane fraction (0.1 mg) and 5 nM [^3H]PGD2 (115 Ci/mmol), and the mixture was reacted at 4° C. for 90 min. After the reaction, the mixture was filtered through a glass fiber filter paper and washed several times with cooled physiological saline, then the radioactivity retained on the filter paper was measured. The specific-binding ratio was calculated by subtracting the non-specific binding ratio which is the radioactivity similarly measured in the presence of 10 μM PGD2 from the total binding. The inhibitory activity of each compound was expressed as the concentration required for 50% inhibition (IC50), which was determined by depicting a substitution curve by plotting the binding ratio (%) in the presence of each compound, where the binding ratio in the absence of a test compound is 100%.

Structure (SMILES)	IC50 [1]	melting point	half-life [2]	IC50 [3]
CC1(C)[C@H]2C[C@H](CCCCOCC(=O)O)[C@@H](NC(=O)c3csc4ccc(CNC(N)=O)cc34)[C@@H]1C2 [IIc-97]	11 nM			
CC1(C)[C@H]2C[C@H](CCCCSCC(=O)O)[C@@H](NC(=O)c3cccc4ccsc34)[C@@H]1C2 [IIe-34]	19 nM	143 to 144 °C		
CC1(C)[C@H]2C[C@H](C/C=C\CCCC(=O)O)[C@@H](NC(=O)c3ccsc3)[C@@H]1C2 [Reference compound 1, reference compound]			8 min	
CC1(C)[C@H]2C[C@H](CCCCOCC(=O)O)[C@@H](NC(=O)c3csc4cc(F)c(O)cc34)[C@@H]1C2 [IIc-128]	5 nM			
CC1(C)[C@H]2C[C@H](CCCCOCC(=O)O)[C@@H](NC(=O)c3csc4ccccc34)[C@@H]1C2 [IIc-17]	5.4 nM	125 to 126 °C		
CC1(C)[C@H]2C[C@H](CCCC/C=C/C(=O)O)[C@@H](NC(=O)c3cc4ccsc4[nH]3)[C@@H]1C2 [IIa-66]	17 nM			
CC1(C)[C@H]2C[C@H](CCCCSCC(=O)O)[C@@H](NC(=O)c3csc4ccc(F)cc34)[C@@H]1C2 [IIe-28]	17 nM	197 to 199 °C		
CC1(C)[C@H]2C[C@H](CCCCOCC(=O)O)[C@@H](NC(=O)c3csc4ccc(F)cc34)[C@@H]1C2 [IIc-28]	13 nM	144 to 146 °C		
CC1(C)[C@H]2C[C@H](CCCC/C=C/C(=O)O)[C@@H](NC(=O)c3csc4cc(O)ccc34)[C@@H]1C2 [IIa-22]	3.7 nM			
CCOC(=O)Nc1ccc2scc(C(=O)N[C@@H]3[C@@H](CCCCC(=O)O)C[C@H]4C[C@@H]3C4(C)C)c2c1 [IIf-84]	20 nM			
Cc1ccc2scc(C(=O)N[C@@H]3[C@@H](CCCCOCC(=O)O)C[C@H]4C[C@@H]3C4(C)C)c2c1 [IIc-20]	15 nM	87 to 90 °C		
CC1(C)[C@H]2C[C@H](CCCCOCC(=O)O)[C@@H](NC(=O)c3csc4ccc(C(N)=O)cc34)[C@@H]1C2 [IIc-99]	6 nM	164 to 166 °C		
CC1(C)[C@H]2C[C@H](CCCC/C=C/C(=O)O)[C@@H](NC(=O)c3coc4cc(F)ccc34)[C@@H]1C2 [IIa-54]	15 nM			
CC1(C)[C@H]2C[C@H](CCCCOCC(=O)O)[C@@H](NC(=O)c3csc4ccc(O)cc34)[C@@H]1C2 [IIc-23]	4.9 nM			9.5 nM
O=C(O)/C=C/CCCC[C@H]1[C@@H]2CC[C@@H](C2)[C@@H]1NC(=O)c1csc2ccccc12 [Ia-17]	11 nM	155 to 157 °C		
CC1(C)[C@H]2C[C@H](C/C=C\CCCC(=O)O)[C@@H](NC(=O)c3cccc4ccsc34)[C@@H]1C2 [Reference compound 2, reference compound]			17 min	
CC1(C)[C@H]2C[C@H](CCCCSCC(=O)O)[C@@H](NC(=O)c3csc4cc(O)ccc34)[C@@H]1C2 [IIe-22]	4.8 nM			
CC1(C)[C@H]2C[C@H](CCCC/C=C/C(=O)O)[C@@H](NC(=O)c3ccsc3)[C@@H]1C2 [IIa-4]	19 nM		21.6 min	
CC1(C)[C@H]2C[C@H](CCCCSCC(=O)O)[C@@H](NC(=O)c3csc4cccc(O)c34)[C@@H]1C2 [IIe-24]	5.7 nM			
CC1(C)[C@H]2C[C@H](CCCCOCC(=O)O)[C@@H](NC(=O)c3csc4cc(O)ccc34)[C@@H]1C2 [IIc-22]	4.6 nM			

Structure (SMILES)	IC50 [1]	melting point	half-life [2]	IC50 [3]
O=C(O)/C=C/CCCC[C@H]1[C@@H]2CC[C@@H](C2)[C@@H]1NC(=O)c1cc2sccc2[nH]1 [Ia-65]	18 nM			
CC1(C)[C@H]2C[C@H](CCCCOCC(=O)O)[C@@H](NC(=O)c3csc4ccc(CNS(C)(=O)=O)cc34)[C@@H]1C2 [IIc-96]	17 nM			
CC1(C)[C@H]2C[C@H](CCCCOCC(=O)O)[C@@H](NC(=O)c3csc4cccc(O)c34)[C@@H]1C2 [IIc-24]	13 nM			
CC1(C)[C@H]2C[C@H](CCCC/C=C/C(=O)O)[C@@H](NC(=O)c3cccc4ccsc34)[C@@H]1C2 [IIa-34]	14 nM	141 to 142 °C	34.6 min	
CC1(C)[C@H]2C[C@H](CCCCOCC(=O)O)[C@@H](NC(=O)c3cccc4ccsc34)[C@@H]1C2 [IIc-34]	11 nM	95 to 96 °C	66.7 min	
CC1(C)[C@H]2C[C@H](CCCCOCC(=O)O)[C@@H](NC(=O)c3coc4ccc(NC(N)=O)cc34)[C@@H]1C2 [IIc-135]	3 nM			
CC1(C)[C@H]2C[C@H](CCCCOCC(=O)O)[C@@H](NC(=O)c3ccsc3)[C@@H]1C2 [IIc-4]	18 nM		44.3 min	
O=C(O)COCCCC[C@H]1[C@@H]2CC[C@@H](C2)[C@@H]1NC(=O)c1csc2ccc(O)cc12 [Ic-23]	10 nM	149 to 151 °C		
O=C(O)COCCCC[C@H]1[C@@H]2CC[C@@H](C2)[C@@H]1NC(=O)c1csc2cc(O)ccc12 [Ic-22]	10 nM	76 to 79 °C		
Cc1cc(O)cc2c(C(=O)N[C@@H]3[C@@H](CCCCOCC(=O)O)C[C@H]4C[C@@H]3C4(C)C)coc12 [IIc-81]	8 nM			
O=C(O)COCCCC[C@H]1[C@@H]2CC[C@@H](C2)[C@@H]1NC(=O)c1coc2ccc(O)cc12 [Ic-52]	10 nM			74 nM
CC1(C)[C@H]2C[C@H](CCCCOCC(=O)O)[C@@H](NC(=O)c3csc4ccc(NC(N)=O)cc34)[C@@H]1C2 [IIc-86]	8 nM			
CC1(C)[C@H]2C[C@H](CCCC/C=C/C(=O)O)[C@@H](NC(=O)c3csc4ccccc34)[C@@H]1C2 [IIa-17]	15 nM			
CC1(C)[C@H]2C[C@H](CCCC/C=C/C(=O)O)[C@@H](NC(=O)c3csc4ccc(O)cc34)[C@@H]1C2 [IIa-23]	2.5 nM			33 nM
CC1(C)[C@H]2C[C@H](CCCCOCC(=O)O)[C@@H](NC(=O)c3coc4ccc(O)cc34)[C@@H]1C2 [IIc-52]	8.2 nM		23.4 min	3.5 nM
Cc1ccc2scc(C(=O)N[C@H]3[C@H]4CC[C@H](C4)[C@@H]3CCCC/C=C/C(=O)O)c2c1 [Ia-20]	17 nM	129 to 131 °C		
COc1cc2c(C(=O)N[C@@H]3[C@@H](CCCCOCC(=O)O)C[C@H]4C[C@@H]3C4(C)C)csc2cc1F [IIc-129]	18 nM			
CC1(C)[C@H]2C[C@H](CCCC/C=C/C(=O)O)[C@@H](NC(=O)c3coc4ccc(O)cc34)[C@@H]1C2 [IIa-52]	3.7 nM	159 to 160 °C	16.7 min	
CC1(C)[C@H]2C[C@H](C/C=C\CCCC(=O)O)[C@@H](NC(=O)c3coc4ccc(O)cc34)[C@@H]1C2 [Reference compound 3]			8.7 min	
CC1(C)[C@H]2C[C@H](CCCC/C=C/C(=O)O)[C@@H](NC(=O)c3csc4ccc(F)cc34)[C@@H]1C2 [IIa-28]	16 nM			
